The text below walks through data of US11033629B2, “Oral formulations of kappa opioid receptor agonists” (Cara Therapeutics, Inc., priority 2018, dated 2021).

The nature of this series: Intravenous delivery of CR845 to canines (composite IV data from five studies, reference for bioavailability). The settings on record: dog, in vivo, average dose 0.029±0.029 mg/kg, ten kilogram dogs, thirty-six canines. How it is done: Each capsule of prototype formulation 1 contained: 1.6 mg spray dried CR845 in 90% Miglyol 812, 10% sodium caprate. Each capsule of prototype formulation 2 contained: 1.6 mg crystallized CR845 in 90% Miglyol 812, 10% sodium caprate. Each capsule of prototype formulation 3 contained: 1.6 mg spray dried CR845 in 90% Miglyol 812, 10% capric acid. Each capsule of prototype formulation 4 contained: 1.6 mg spray dried CR845 in 70% Miglyol 812 in 30% capric acid. Bioavailability (% f) is expressed as a percent of CR845 observed (calculated from the area under the curve: AUC) as compared with the total CR845 AUC observed after intravenous delivery of the same dose. Composite IV data from five separate studies with thirty-six canines was averaged and used for bioavailability calculations. […] The observed avg.

Turning to `CC(C)C[C@@H](NC(=O)[C@@H](Cc1ccccc1)NC(=O)[C@H](N)Cc1ccccc1)C(=O)N[C@H](CCCCN)C(=O)N1CCC(N)(C(=O)O)CC1` [CR845, D-Phe-D-Phe-D-Leu-D-Lys-[ω(4-aminopiperidine-4-carboxylic acid)]-OH], the concentration peaked (Cmax) at 163 ± 39.2 ng/mL.

What is called Cmax is the maximum level reached in the sampled fluid or tissue.
